Series [1] concerns Mycobacterium tuberculosis. The series is described as follows: Antimycobacterial activity against drug-susceptible Mycobacterium tuberculosis H37Rv assessed as complete inhibition of bacterial growth incubated for 7 days by rapid direct susceptibility test. The following applies: 168 h. It counts as functional.
Series [2] is described as follows: Cytotoxicity against African green monkey Vero cells assessed as decrease in cell viability after 72 hrs by MTT assay. It counts as cell-based. As to conditions: chlorocebus sabaeus. In general terms: Tetrazolium assays rely on reduction of a dye to a coloured formazan, in cell work by metabolically active cells.
Series [3] can be described thus: Selectivity index, ratio of CC50 for cytotoxicity against African green monkey Vero cells to MIC for antimycobacterial activity against drug-susceptible Mycobacterium tuberculosis H37Rv. In kind it is toxicity, cell-based. The following applies: read-out: Selectivity Index.
Series [4] is described as follows: Metabolic stability in mouse liver microsomes assessed as half life. In kind it is ADME, Microsome. A general note: Microsomes from liver hold many membrane-bound enzymes, among them those of drug oxidation.
The nature of series [5]: Elimination half life in ICR mouse at 25 mg/kg, po administered as single dose and measured up to 24 hrs post dose. It counts as ADME, organism-based. The following applies: in vivo, read-out: beta t1/2 (converted).
Series [6] can be described thus: Tmax in ICR mouse at 25 mg/kg, po administered as single dose and measured up to 24 hrs post dose. In kind it is ADME, organism-based. The following applies: in vivo.
Series [7] can be described thus: Cmax in ICR mouse at 25 mg/kg, po administered as single dose and measured up to 24 hrs post dose. In kind it is ADME, organism-based. Also on record: dose 25 mg/kg, route oral. The following applies: in vivo.
Series [8] can be described thus: AUC (0 to infinity) in ICR mouse at 25 mg/kg, po administered as single dose and measured up to 24 hrs post dose. In kind it is ADME, organism-based. Set-up: dose 25 mg/kg, time infinity, route oral. The following applies: in vivo.

SMILES strings stand for the structures. Converted amounts (≈) assume the structure as drawn.

What is called MIC is the lowest concentration found to suppress growth. As a reminder, the CC50 is the concentration that lowers cell viability or growth by half. One may read the Tmax as the time at which the peak concentration occurs. A word on the Cmax: it is the highest concentration seen after dosing. As usually defined, the AUC(0-inf) is total exposure, with the tail of the curve extrapolated.

On to `CCOC(=O)c1c(-c2ccc(F)cc2)oc2ccc(OCCCN3C(=O)C(=O)c4cc(OC)ccc43)cc12`, for which, in series [1], the minimum inhibitory concentration (MIC) is 1 µg/mL (≈ 1.93 µM). The half-maximal cytotoxic concentration (CC50) at 72 h in series [2] was 128 µM. In addition, in series [3], the selectivity ratio came to 128.

For the compound `CCOC(=O)c1c(-c2ccc(F)cc2)oc2ccc(OCCCN3C(=O)C(=O)c4cc(F)ccc43)cc12`, the MIC in series [1] is 1 µg/mL (≈ 1.98 µM). The half-maximal cytotoxic concentration (CC50) at 72 h in series [2] stood at 512 µM. The selectivity ratio in series [3] was determined as 512.

For `CCOC(=O)c1c(-c2ccc(OC)cc2)oc2ccc(OCCCN3C(=O)C(=O)c4ccccc43)cc12`, the minimum inhibitory concentration (MIC) in series [1] was 1 µg/mL (≈ 2 µM). Also, the 50% cytotoxic concentration (CC50) at 72 h in series [2] is 64 µM. Besides, the selectivity ratio in series [3] is 64.

Take `CCOC(=O)c1c(-c2ccc(OC)cc2)oc2ccc(OCCCCCCN3C(=O)C(=O)c4ccccc43)cc12`: the minimum inhibitory concentration (MIC) in series [1] was determined as 0.25 µg/mL (≈ 0.462 µM). Besides, the CC50 at 72 h in series [2] amounted to 256 µM. For the same compound, the selectivity ratio in series [3] amounted to 1024.

On to `CCOC(=O)c1c(-c2ccc(OC)cc2)oc2ccc(OCCCCN3C(=O)C(=O)c4cc(OC)ccc43)cc12`, for which, in series [1], the minimal inhibitory concentration (MIC) stood at 2 µg/mL (≈ 3.68 µM). Besides, in series [2], the CC50 at 72 h came out at 64 µM. For the same compound, in series [3], the selectivity ratio worked out at 32.

For `CCOC(=O)c1c(-c2ccc(OC)cc2)oc2ccc(OCCCN3C(=O)C(=O)c4cc(F)ccc43)cc12`, the minimal inhibitory concentration (MIC) in series [1] turned out to be 0.5 µg/mL (≈ 0.966 µM). In addition, the CC50 at 72 h in series [2] is 256 µM. Also, the selectivity ratio in series [3] worked out at 512.

With `CCOC(=O)c1c(-c2ccc(OC)cc2)oc2ccc(OCCCCCN3C(=O)C(=O)c4cc(F)ccc43)cc12`, in series [1], the MIC is 0.25 µg/mL (≈ 0.458 µM). Also, the cytotoxic concentration (CC50) at 72 h in series [2] is 128 µM. The selectivity ratio in series [3] was 512.

For the compound `NNC(=O)c1ccncc1` [ISONIAZID], the minimal inhibitory concentration (MIC) in series [1] is 0.06 µg/mL (≈ 0.438 µM).

For `CCOC(=O)c1c(-c2ccc(F)cc2)oc2ccc(OCCCCCCN3C(=O)C(=O)c4cc(F)ccc43)cc12`, the MIC in series [1] worked out at 0.25 µg/mL (≈ 0.457 µM). Moreover, in series [2], the CC50 at 72 h was 512 µM. Also, the selectivity ratio in series [3] amounted to 2048.

Take `CCOC(=O)c1c(-c2ccc(F)cc2)oc2ccc(OCCCCCN3C(=O)C(=O)c4cc(OC)ccc43)cc12`: the MIC in series [1] is 0.5 µg/mL (≈ 0.916 µM). The 50% cytotoxic concentration (CC50) at 72 h in series [2] was found to be 128 µM. The selectivity ratio in series [3] was determined as 256.

Regarding `CCOC(=O)c1c(-c2ccc(OC)cc2)oc2ccc(OCCCCCCN3C(=O)C(=O)c4cc(F)ccc43)cc12`, the half-life was 0.527 h in series [4] and 2.48 h in series [5]. In series [1], the MIC amounted to 0.125 µg/mL (≈ 0.223 µM). Also, the CC50 at 72 h in series [2] came to 128 µM. Further, the time to peak (Tmax) in series [6] amounted to 1.76 h. Besides, in series [3], the selectivity ratio is 1024. The same compound had a Cmax in series [7] of 1220 ng/mL. Besides, the area under the curve AUC(0-inf) in series [8] was found to be 3680 ng·h/mL.

Regarding `CCOC(=O)c1c(-c2ccccc2)oc2ccc(OCCCN3C(=O)C(=O)c4cc(OC)ccc43)cc12`, in series [1], the MIC is 0.25 µg/mL (≈ 0.5 µM). The 50% cytotoxic concentration (CC50) at 72 h in series [2] was 256 µM. Also, in series [3], the selectivity ratio stood at 1024.

For the compound `CCOC(=O)c1c(-c2ccc(OC)cc2)oc2ccc(OCCCCN3C(=O)C(=O)c4ccccc43)cc12`, the minimal inhibitory concentration (MIC) in series [1] was determined as 0.5 µg/mL (≈ 0.974 µM). Further, the CC50 at 72 h in series [2] was > 1020 µM. Further, the selectivity ratio in series [3] was > 2048.

As for `CO[C@H]1/C=C/O[C@@]2(C)Oc3c(C)c(O)c4c(O)c(c(/C=N/N5CCN(C)CC5)c(O)c4c3C2=O)NC(=O)/C(C)=C\C=C\[C@H](C)[C@H](O)[C@@H](C)[C@@H](O)[C@@H](C)[C@H](OC(C)=O)[C@@H]1C` [RIFAMPIN], in series [1], the MIC amounted to 0.5 µg/mL (≈ 0.608 µM).

Consider `CNC(=O)c1c(-c2ccc(O)cc2)oc2ccc(O)c(CN3CCCCC3)c12`, for which the half-life was > 1 h in series [4] and 8.59 h in series [5]. Also, the MIC in series [1] was < 0.06 µg/mL. In addition, the CC50 at 72 h in series [2] is > 1020 µM. Also, in series [6], the time of peak concentration (Tmax) came to 3.12 h. The selectivity ratio in series [3] was > 16400. Besides, the maximum concentration (Cmax) in series [7] is 6830 ng/mL. In series [8], the AUC(0-inf) was determined as 31800 ng·h/mL.

As to `CCOC(=O)c1c(-c2ccc(F)cc2)oc2ccc(OCCCN3C(=O)C(=O)c4ccccc43)cc12`, the MIC in series [1] was 2 µg/mL (≈ 4.1 µM). In series [2], the 50% cytotoxic concentration (CC50) at 72 h was found to be 256 µM. In addition, the selectivity ratio in series [3] amounted to 128.

(Values after ChEMBL document CHEMBL4390694, “Benzofuran-isatin hybrids tethered via different length alkyl linkers and their in vitro anti-mycobacterial activities” (Bioorg Med Chem, 2019).)
